Data published in patent publication US20250313535A1, “ALPHA 4 BETA 7 INTEGRIN MODULATORS AND USES THEREOF” (DICE MOLECULES SV, INC., priority 2022, published 2025).
Read-outs that look alike come from different tables or passages of the source.

Key:
α4β7 integrin = α4β7 integrin (Homo sapiens (Human), UniProt P13612+P26010); assay: Integrin Adhesion Assay: Protocol 4 (MAdCAM-coated plate, RPMI-8866 cells with stable LOF mutation of the ITGB1 gene); assay type: cell-based
Outline: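 RPMI-8866 cells with CRISPR/Cas9 knockout of ITGB1 (2×10^6/mL) were added to MAdCAM-coated wells with compound (1% DMSO) in HEPES/NaCl buffer with 1 mM MnCl2, 0.1 mM CaCl2 and 1% BSA, then incubated 1 h at 37 °C. After four washes, adherent cells were quantified by CellTiter-Glo luminescence. Percent inhibition versus DMSO and control compound was fitted to 4-parameter curves.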

α4β1 integrin = α4β1 integrin (Homo sapiens (Human), UniProt P05556+P13612); assay: Integrin Adhesion Assay: Protocol 5 (VCAM-coated plate, RPMI-8866 cells with stable LOF mutation of the ITGB7 gene); assay type: cell-based
α4β1 integrin, sequence (P13612 34-1032): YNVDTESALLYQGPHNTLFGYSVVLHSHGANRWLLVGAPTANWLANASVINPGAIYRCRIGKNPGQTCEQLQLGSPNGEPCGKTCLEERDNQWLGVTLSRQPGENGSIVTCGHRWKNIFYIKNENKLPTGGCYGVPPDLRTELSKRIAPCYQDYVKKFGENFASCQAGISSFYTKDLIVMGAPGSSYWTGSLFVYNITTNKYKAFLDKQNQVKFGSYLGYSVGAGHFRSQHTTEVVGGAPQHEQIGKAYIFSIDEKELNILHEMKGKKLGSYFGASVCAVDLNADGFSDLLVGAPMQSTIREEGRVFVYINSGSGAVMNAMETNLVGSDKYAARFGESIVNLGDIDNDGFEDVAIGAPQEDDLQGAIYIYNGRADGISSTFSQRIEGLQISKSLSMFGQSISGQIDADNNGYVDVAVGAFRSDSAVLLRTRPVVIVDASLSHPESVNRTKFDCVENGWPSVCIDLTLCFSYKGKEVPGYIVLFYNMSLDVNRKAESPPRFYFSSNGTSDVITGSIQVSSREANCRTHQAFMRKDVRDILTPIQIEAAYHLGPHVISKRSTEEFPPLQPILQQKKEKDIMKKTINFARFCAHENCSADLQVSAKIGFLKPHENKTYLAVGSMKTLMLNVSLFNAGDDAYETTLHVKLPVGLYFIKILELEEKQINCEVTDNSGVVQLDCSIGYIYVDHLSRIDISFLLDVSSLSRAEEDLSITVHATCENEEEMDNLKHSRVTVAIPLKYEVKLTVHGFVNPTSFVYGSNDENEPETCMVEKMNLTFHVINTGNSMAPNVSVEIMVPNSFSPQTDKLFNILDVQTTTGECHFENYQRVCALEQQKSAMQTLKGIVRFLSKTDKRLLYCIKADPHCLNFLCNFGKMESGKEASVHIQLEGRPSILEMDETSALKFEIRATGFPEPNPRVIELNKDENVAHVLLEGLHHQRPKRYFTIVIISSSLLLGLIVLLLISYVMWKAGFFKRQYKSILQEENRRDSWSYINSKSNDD
α4β1 integrin, sequence (P05556 21-798): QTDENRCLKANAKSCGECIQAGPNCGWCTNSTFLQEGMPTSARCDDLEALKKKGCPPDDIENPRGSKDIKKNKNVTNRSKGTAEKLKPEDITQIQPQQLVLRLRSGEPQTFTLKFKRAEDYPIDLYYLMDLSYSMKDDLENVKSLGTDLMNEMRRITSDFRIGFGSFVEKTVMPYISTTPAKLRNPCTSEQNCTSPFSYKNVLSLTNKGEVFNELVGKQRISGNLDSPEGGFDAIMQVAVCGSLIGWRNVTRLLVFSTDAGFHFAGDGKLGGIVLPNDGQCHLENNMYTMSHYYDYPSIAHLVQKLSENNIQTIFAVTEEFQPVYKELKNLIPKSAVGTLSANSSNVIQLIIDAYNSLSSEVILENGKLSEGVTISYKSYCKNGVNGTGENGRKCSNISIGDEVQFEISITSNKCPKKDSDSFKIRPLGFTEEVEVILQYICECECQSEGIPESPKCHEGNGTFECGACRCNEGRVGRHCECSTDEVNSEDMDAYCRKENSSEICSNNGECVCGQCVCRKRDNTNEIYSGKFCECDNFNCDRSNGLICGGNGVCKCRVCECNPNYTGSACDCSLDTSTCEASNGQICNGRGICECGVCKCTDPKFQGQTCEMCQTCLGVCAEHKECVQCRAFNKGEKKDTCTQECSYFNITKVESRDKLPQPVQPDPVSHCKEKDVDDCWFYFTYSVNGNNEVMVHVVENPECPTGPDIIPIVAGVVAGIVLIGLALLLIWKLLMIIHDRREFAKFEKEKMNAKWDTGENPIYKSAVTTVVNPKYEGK
Description: Integrin Adhesion Assay Using Genetically Modified Cells Generating Stable Cell Lines with ITGB1 or ITGB7 Knockout (Protocol 4 and Protocol 5)
To obtain subclones of the RPMI-8866 cell line (Sigma-Aldrich, St. Louis, MO) that were individually deficient in either integrin β1 or integrin β 7, CRISPR/Cas9 technology was employed (PMID: 30108345). Specifically, a Neon™ Transfection System System 10 μL Kit and the Neon™ Transfection device (both from ThermoFisher Scientific) were used.
The protocol was performed following the manufacturer instructions, described in https://www.thermofisher.com/document-connect/document-connect.html?url=https % 3A%2F%2F assets.thermofisher.com%2FTFS-Assets%2FLSG%2Fmanuals%2FMAN0017066_TrueCut Cas9_Protein_v2_UG.pdf, which is incorporated by reference herein in its entirety.
RPMI-8866 cells were transferred to a flask the day before transfection, at a confluence of 5×10^5 cells/mL. The cells were washed with PBS and resuspended in buffer R (Neon™ Transfection System, Invitrogen) to 2×10^5 cells/10 uL for each reaction. The TrueCut™ HiFi Cas9 Protein (1250 ng per reaction) was mixed with TrueGuide™ sgRNA (7.5 pmoles each/pool of 3 sequences, table 1) (ThermoFisher Scientific). This mix was combined with the RPMI-8866 cells and electroporated on the Neon system at 1700V/20 ms/1 pulse. Transfected cells were allowed to recover in 500 μL pre-warmed cRMPI media (RPMI-1640 media with 10% FBS, 100 U/ml Penicillin-Streptomycin) at 37° C., 5% CO2 for 24 hours. At that time, an extra 500 μL of pre-warmed cRMPI media was added, and cells were incubated for another 24 hours.
For flow cytometry analysis, 100 μL of the transfected cells were collected and stained with anti-itga4 (Clone: 9F10, PE, BD Pharmingen™), anti-itgb 1 (Clone: (TS2/16), Super Bright 436, eBioscience), anti-itgb7 (Clone: FIB504, Brilliant Violet 650, BD Pharmingen™) and viability dye (LIVE/DEAD™ Fixable Green Dead Cell Stain, Invitrogen™). An Attune NxT Flow Cytometer was used to analyze the CRISPR-transfected cells. The flow cytometry results were analyzed using FlowJo™ v10.8.1 Software (BD Life Sciences). Fluorescence minus one (FMO) controls were used to select appropriate gates for data analysis.
To generate an individual clones of cells deficient in either ITGB7 or ITGB1 by limiting dilution assay, the transfected cells were resuspended at 5 cells/mL and seeded in 384 well plates. Outgrowth of clones was monitored using a microscope, and 24 clones were transferred for expansion. Expression of either integrin was verified by flow cytometry in each of the clones. One clone of each integrin b7 or the integrin b1 knockout was chosen, expanded and aliquots were frozen in vapor phase liquid nitrogen.
Integrin Adhesion Assay: Protocol 5
VCAM (R&D Systems, 0.1 ug) was diluted in 50 μL PBS, added to each well of an opaque ELISA plate (Thermo), and incubated overnight at 4° C. Coated plates were washed once with PBS and then blocked with 200 μL of assay buffer (10 mM HEPES, 150 mM NaCl, 1 mM MnCl2, 0.1 mM CaCl2), 1% BSA) for 1 hour at 37° C. and 5% CO2. After incubation, buffer was aspirated from the plates and 50 μL of fresh assay buffer was added. Compounds were added by compounds dispenser (Tecan) and DMSO concentration was normalized to 1% across each plate. 50 μL of RPMI-8866 cells with a stable LOF mutation of the ITGB7 gene (2×10^6 per mL) were added to each well and the plates were incubated for 1 hour at 37° C. and 5% CO2. After incubation, plates were allowed to cool to RT for 10 minutes before being washed four times in assay buffer by an automated plate washer (BioTek). After washing, 100 μL of a 1:1 mixture of assay buffer and CellTiter GLO 2.0 reagent (Promega) were added to each well. Plates were mixed for 2 minutes at 1000 rpm and then allowed to incubate an additional 10 minutes before reading out luminescence on a Tecan Spark plate reader. […]

[1] = Protocol 4, RPMI-8866 cells with LOF mutation of ITGB1, MAdCAM, read-out: Mean IC50 α4β7 KO
[2] = Protocol 5, RPMI-8866 cells with LOF mutation of ITGB7, VCAM, read-out: Mean IC50 α4β1 KO
[3] = RPMI-8866 cells with stable LOF mutation of the ITGB1 gene, read-out: Mean IC50 α4β7 KO^a
[4] = RPMI-8866 cells with stable LOF mutation of the ITGB7 gene, read-out: Mean IC50 α4β1 KO^b

α4β7 integrin, sequence (P13612 34-1032): as the sequence (P13612 34-1032) above
α4β7 integrin, sequence (P26010 20-798): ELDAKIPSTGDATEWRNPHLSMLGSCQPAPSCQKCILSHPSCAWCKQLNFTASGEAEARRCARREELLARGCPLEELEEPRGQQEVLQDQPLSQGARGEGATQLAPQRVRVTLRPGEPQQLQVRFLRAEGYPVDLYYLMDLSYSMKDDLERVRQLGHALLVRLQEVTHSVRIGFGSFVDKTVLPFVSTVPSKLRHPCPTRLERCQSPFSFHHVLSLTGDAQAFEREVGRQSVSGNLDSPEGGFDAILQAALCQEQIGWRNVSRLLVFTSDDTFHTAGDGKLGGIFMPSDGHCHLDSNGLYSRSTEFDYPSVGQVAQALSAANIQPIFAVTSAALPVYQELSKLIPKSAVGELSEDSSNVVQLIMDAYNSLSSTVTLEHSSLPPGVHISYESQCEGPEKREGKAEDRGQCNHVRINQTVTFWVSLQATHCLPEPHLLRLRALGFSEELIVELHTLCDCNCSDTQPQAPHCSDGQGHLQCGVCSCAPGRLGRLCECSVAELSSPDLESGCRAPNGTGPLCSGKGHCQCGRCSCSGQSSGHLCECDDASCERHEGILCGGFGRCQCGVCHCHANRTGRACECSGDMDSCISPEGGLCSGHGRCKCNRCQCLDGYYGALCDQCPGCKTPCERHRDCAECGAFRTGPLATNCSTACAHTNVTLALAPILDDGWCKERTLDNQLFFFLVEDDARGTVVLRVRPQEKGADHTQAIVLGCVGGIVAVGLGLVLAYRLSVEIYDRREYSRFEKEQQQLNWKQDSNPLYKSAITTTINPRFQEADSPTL

Structure (SMILES) | IC50 (α4β7 integrin; [1]) | IC50 (α4β1 integrin; [2]) | IC50 (α4β7 integrin; [3]) | IC50 (α4β1 integrin; [4])
COc1cccc(CCN2CCC[C@@H](F)C2)c1-c1cccc2c(C[C@H](NC(=O)C3(C(F)(F)F)CCN(CC(F)F)CC3)C(=O)O)cccc12 [Compound 970] | < 10 nM | 100 to 1000 nM |  | 
O=C(O)[C@H](Cc1cccc2c(-c3ncc(CN4CCCCC4)c4ccccc34)cccc12)NC(=O)C1(C(F)(F)F)CCN([C@@H]2COCC2(F)F)CC1 [Compound 578] |  |  | < 10 nM | > 1000 nM
O=C(O)[C@H](Cc1cccc2c(-c3c(CN4CCCCC4)ccc4ccncc34)cccc12)NC(=O)C1(C(F)(F)F)CCN(CC(F)(F)F)CC1 [Compound 802] | < 10 nM | > 1000 nM |  | 
O=C(N[C@@H](Cc1cccc2c(-c3cccc4cccnc34)cccc12)C(=O)O)c1c(F)cccc1F [Compound 500] |  |  | > 1000 nM | > 1000 nM
O=C(O)[C@H](Cc1cccc2c(-c3ncc(CN4CCC[C@H](F)C4)cc3C3CC3)cccc12)NC(=O)C1(C(F)(F)F)CCN(CC(F)F)CC1 [Compound 953] | < 10 nM | 100 to 1000 nM |  | 
O=C(O)[C@H](Cc1cccc2c(-c3cc(CN4CCCC4)cc4ccncc34)cccc12)NC(=O)C1(C(F)(F)F)CCN(C2COC2)CC1 [Compound 620] |  |  | < 10 nM | > 1000 nM
Cn1c(=O)c(-c2cccc3c(C[C@H](NC(=O)C4(C(F)(F)F)CCN(C5CC(F)(F)C5)CC4)C(=O)O)cccc23)c(C(F)(F)F)c2ccccc21 [Compound 493] |  |  | 10 to 100 nM | 100 to 1000 nM
COc1ccc(CN2CCC(F)(F)CC2)c(OC)c1-c1cccc2c(C[C@H](NC(=O)c3c(C)ccnc3F)C(=O)O)cccc12 [Compound 606] |  |  | 10 to 100 nM | > 1000 nM
COc1ccc(CN2CCC(F)(F)CC2)c(OC)c1-c1cccc2c(C[C@H](NC(=O)c3c(F)ccnc3C)C(=O)O)cccc12 [Compound 615] |  |  | 10 to 100 nM | > 1000 nM
CC1(C)CCN(Cc2cnc(-c3cccc4c(C[C@H](NC(=O)C5(C(F)(F)F)CCN(CC(F)(F)F)CC5)C(=O)O)cccc34)c3ccccc23)CC1 [Compound 854] | < 10 nM | 100 to 1000 nM |  | 
COc1cccc(CN2CCCCC2)c1-c1cccc2c(C[C@H](NC(=O)c3c(F)cccc3Cl)C(=O)O)cccc12 [Compound 674] |  |  | < 10 nM | 100 to 1000 nM
CN1CCCC1c1cc(-c2cccc3c(C[C@H](NC(=O)C4(C(F)(F)F)CCN(C5COC5)CC4)C(=O)O)cccc23)c2cnccc2c1 (stereo partly shown) [Compound 644] |  |  | < 10 nM | 100 to 1000 nM
COc1ccc(CN2CCC(F)(F)CC2)c(C(F)(F)F)c1-c1cccc2c(C[C@H](NC(=O)C3(C(F)(F)F)CCN(CC(F)(F)F)CC3)C(=O)O)cccc12 [Compound 822] | 100 to 1000 nM | > 1000 nM |  | 
O=C(O)[C@H](Cc1cccc2c(-c3ncc(CN4C5CCCC4CC5)c4ccccc34)cccc12)NC(=O)C1(C(F)(F)F)CCN(CC(F)(F)F)CC1 [Compound 884] | < 10 nM | > 1000 nM |  | 
COc1cc(CN2CCC(F)(F)C2)cc(OC)c1-c1cccc2c(C[C@H](NC(=O)C3(C(F)(F)F)CCN(CC(F)(F)F)CC3)C(=O)O)cccc12 [Compound 797] | < 10 nM | > 1000 nM |  | 
COCCN1CCC(C(=O)N[C@@H](Cc2cccc3c(-c4c(C(F)(F)F)c5ccccc5n(C)c4=O)cccc23)C(=O)O)(C(F)(F)F)CC1 [Compound 502] |  |  | < 10 nM | 100 to 1000 nM
COc1cccc(CN2CCCCC2)c1-c1cccc2c(C[C@H](NC(=O)c3c(C)cc(NCC(F)(F)F)cc3F)C(=O)O)cccc12 [Compound 545] |  |  | < 10 nM | 100 to 1000 nM
O=C(O)[C@H](Cc1cccc2c(-c3ncc(CN4CCN(C5CC5)CC4)c4ccccc34)cccc12)NC(=O)C1(C(F)(F)F)CCN(CC(F)(F)F)CC1 [Compound 868] | < 10 nM | > 1000 nM |  | 
O=C(O)[C@H](Cc1cccc2c(-c3nccc4c(CN5CCOC(C(F)(F)F)C5)cccc34)cccc12)NC(=O)C1(C(F)(F)F)CCN(CC(F)(F)F)CC1 (stereo partly shown) [Compound 660] |  |  | 10 to 100 nM | > 1000 nM
COc1cc(CN2CCC(F)(F)CC2)cc(C(F)(F)F)c1-c1cccc2c(C[C@H](NC(=O)C3(C(F)(F)F)CCN(CC(F)(F)F)CC3)C(=O)O)cccc12 [Compound 847] | 10 to 100 nM | > 1000 nM |  | 
Cn1c(=O)c(-c2cccc3c(C[C@H](NC(=O)C4(C(F)(F)F)CCN(C5CCOCC5C(F)(F)F)CC4)C(=O)O)cccc23)c(C(F)(F)F)c2ccccc21 (stereo partly shown) [Compound 511] |  |  | 10 to 100 nM | > 1000 nM
COc1ccc(CCN2CCCCC2)cc1-c1cccc2c(C[C@H](NC(=O)C3(C(F)(F)F)CCN(CC(F)(F)F)CC3)C(=O)O)cccc12 [Compound 731] | < 10 nM | 100 to 1000 nM |  | 
O=C(O)[C@H](Cc1cccc2c(-c3ncc(CN4CCC[C@@H](F)C4)c4ccccc34)cccc12)NC(=O)C1(C(F)(F)F)CCN(CC(F)(F)F)CC1 [Compound 855] | 10 to 100 nM | > 1000 nM |  | 
O=C(O)[C@H](Cc1cccc2c(-c3ncc(CN4C5CCCC4CC5)c4ccccc34)cccc12)NC(=O)C1(C(F)(F)F)CCN(CC(F)F)CC1 [Compound 911] | < 10 nM | > 1000 nM |  | 
COc1ccc2cccnc2c1-c1cccc2c(C[C@H](NC(=O)c3c(F)cccc3F)C(=O)O)cccc12 [Compound 501] |  |  | 100 to 1000 nM | > 1000 nM
COC(=O)[C@H](Cc1cccc2c(-c3ncc(CN(C)C)c4ccccc34)cccc12)NC(=O)C1(C(F)(F)F)CCN(CC(F)F)CC1 [Compound 778] | < 10 nM | 100 to 1000 nM |  | 
COc1ccc(CN2CCC(F)(F)CC2)c(OC)c1-c1cccc2c(C[C@H](NC(=O)c3c(C)cccc3F)C(=O)O)cccc12 [Compound 634] |  |  | 10 to 100 nM | > 1000 nM
O=C(O)[C@H](Cc1cccc2c(-c3nccc4c(CN5CCC(F)(F)CC5)cccc34)cccc12)NC(=O)C1(C(F)(F)F)CCN(CC(F)(F)F)CC1 [Compound 554] |  |  | 10 to 100 nM | > 1000 nM
COc1ccc(CN(C)C)c(OC)c1-c1cccc2c(C[C@H](NC(=O)c3c(F)cccc3Cl)C(=O)O)cccc12 [Compound 610] |  |  | < 10 nM | 100 to 1000 nM
